Where two headings read alike, the source gives them in different places.
Assays:
A2780 ovarian cancer = test: MTT proliferation inhibition, A2780; format: cell-based; conditions: Homo sapiens, A2780, read-out: Proliferation inhibition rate, A2780 Ovarian cancer
From the text: (§1) 1. Cytotoxicity Assay Using Human Tumor Cell Lines
(§2) Paclitaxel was used as the positive drug.

Hela cervical cancer = test: MTT proliferation inhibition, HeLa; format: cell-based; conditions: Homo sapiens, read-out: Proliferation inhibition rate, HeLa Uterin cancer
From the text: as §1, §2

[1] = system: MCF-7 breast cancer cells; test: MTT proliferation inhibition, MCF-7; format: cell-based; conditions: Homo sapiens, MCF7, read-out: Proliferation inhibition rate, MCF-7 Breast cancer
From the text: as §1, §2

[2] = system: NCI-H460 non-small cell lung cancer; test: MTT proliferation inhibition, NCI-H460; format: cell-based; conditions: Homo sapiens, NCI-H460, read-out: Proliferation inhibition rate, NCI-H460 Non-small cell lung cancer
From the text: as §1, §2

A375 melanoma = test: MTT proliferation inhibition, A375; format: cell-based; conditions: Homo sapiens, A-375, read-out: Proliferation inhibition rate, A375 Melanoma
From the text: as §1, §2

HT-29 colon cancer = test: MTT proliferation inhibition, HT-29; format: cell-based; conditions: Homo sapiens, HT-29, read-out: Proliferation inhibition rate, HT29 Colon cancer
From the text: as §1, §2

HL-60 leukemia = test: MTT proliferation inhibition, HL-60; format: cell-based; conditions: Homo sapiens, HL-60, read-out: Proliferation inhibition rate, HL60 Leukemia
From the text: as §1, §2

Du145 prostate cancer = test: MTT proliferation inhibition, Du145; format: cell-based; conditions: Homo sapiens, DU-145, read-out: Proliferation inhibition rate, DU145 Prostate cancer
From the text: as §1, §2

[3] = system: MDA-MB-436 breast cancer cells; test: MTT proliferation inhibition, MDA-MB-436; format: cell-based; conditions: Homo sapiens, MDA-MB-436, read-out: Proliferation inhibition rate, MDA-MB-436 Breast cancer
From the text: as §1, §2

LN-18 = test: MTT proliferation inhibition, LN-18; format: cell-based; conditions: Homo sapiens, LN-18, read-out: Proliferation inhibition rate, LN-18 Gastric canser
From the text: as §1, §2

BGC-823 gastric cancer = test: MTT proliferation inhibition, BGC-823; format: cell-based; conditions: Homo sapiens, BGC-823, read-out: Proliferation inhibition rate, BGC-823 Gastric cancer
From the text: as §1, §2

[4] = system: A549 non-small cell lung cancer; test: MTT proliferation inhibition, A549; format: cell-based; conditions: Homo sapiens, A549, read-out: Proliferation inhibition rate, A549 Non-small cell lung cancer
From the text: as §1, §2

B16 melanoma = test: MTT proliferation inhibition, B16; format: cell-based; conditions: B16, read-out: Proliferation inhibition rate, B16 Melanoma
From the text: as §1, §2

HCT 116 colon cancer = test: MTT proliferation inhibition, HCT 116; format: cell-based; conditions: Homo sapiens, HCT-116, read-out: Proliferation inhibition rate, HCT 116 Colon cancer
From the text: as §1, §2

K562 leukemia = test: MTT proliferation inhibition, K562; format: cell-based; conditions: Homo sapiens, K562, read-out: Proliferation inhibition rate, K562 Leukemia
From the text: as §1, §2

LNCaP prostate cancer = test: MTT proliferation inhibition, LNCaP; format: cell-based; conditions: Homo sapiens, read-out: Proliferation inhibition rate, LNCaP Prostate cancer
From the text: as §1, §2

[5] = system: breast cancer cell line MCF-7; test: IC50 on breast cancer cell line MCF-7; format: cell-based; conditions: Homo sapiens, MCF7, 72 h, read-out: MCF-7 (IC50, nM)
Procedure: From the activity evaluation data of the above-mentioned preliminary screen, it can be seen that the series of taxanes derivatives synthesized in the present invention have activity. Afterward, the compounds are investigated to examine their IC50 values on breast cancer cell line MCF-7. […] Experiments for each compound were independently repeated for three times and multiple holes were used in each experiment. The exposure time of drugs was 72 hours.

[6] = Caco-2 cell monolayer membrane transport assay (Papp and recovery); format: in vitro ADME; conditions: human, Caco-2, Caco-2, A-B
From the text: Caco-2 Cell Monolayer Membrane Transport Assay
Human-derived colorectal adenocarcinoma cell line Caco-2 cell monolayer model was used to study the bidirectional transport of the target compounds from the apical (AP) side to the basolateral (BL) side and from BL side to AP side. HPLC was used for quantitative analysis to calculate transport parameters, apparent permeability coefficient (Papp) and the efflux ratio.

[7] = Mean, read-out: Recovery rate in mass, Mean
[8] = Sample-01, read-out: Papp A-B, Sample-01
[9] = Sample-01, read-out: Recovery rate in mass, Sample-01
[10] = Sample-02, read-out: Papp A-B, Sample-02
[11] = Sample-02, read-out: Recovery rate in mass, Sample-02

## CO[C@H]1C(=O)[C@@]2(C)[C@H]([C@H](OC(=O)c3ccccc3)[C@]34OC(=O)O[C@H]3[C@H](OC(=O)[C@H](O)[C@@H](NC(=O)OC(C)(C)C)c3ccccc3)C(C)=C1C4(C)C)[C@]1(OC(C)=O)CO[C@@H]1C[C@@H]2O [PCMI-06]
A2780 ovarian cancer
  inhibition at 1 µM: 96%
Hela cervical cancer
  inhibition at 1 µM: 99.9%
[1]
  inhibition at 1 µM: 86.3%
[2]
  inhibition at 1 µM: 84.7%
A375 melanoma
  inhibition at 1 µM: 94.4%
HT-29 colon cancer
  inhibition at 1 µM: 87.3%
HL-60 leukemia
  inhibition at 1 µM: 97.7%
Du145 prostate cancer
  inhibition at 1 µM: 89.1%
[3]
  inhibition at 1 µM: 77.8%
LN-18
  inhibition at 1 µM: 94.6%
BGC-823 gastric cancer
  inhibition at 1 µM: 93.6%
[4]
  inhibition at 1 µM: 75.5%
B16 melanoma
  inhibition at 1 µM: 80.7%
HCT 116 colon cancer
  inhibition at 1 µM: 67.1%
K562 leukemia
  inhibition at 1 µM: 93.3%
LNCaP prostate cancer
  inhibition at 1 µM: 83.6%
[5]
  IC50: 16.24 ± 0.08 nM
[6]; Mean, read-out: Papp A-B, Mean
  Papp A→B: 1.22 ×10⁻⁶ cm/s
[6]; [7]
  recovery: 112%
[6]; [8]
  Papp A→B: 1.31 ×10⁻⁶ cm/s
[6]; [9]
  recovery: 128%
[6]; [10]
  Papp A→B: 1.13 ×10⁻⁶ cm/s
[6]; [11]
  recovery: 96.6%

## CO[C@H]1C[C@H]2OC[C@@]2(OC(C)=O)[C@H]2[C@H](OC(=O)c3ccccc3)[C@]34OC(=O)O[C@H]3[C@H](OC(=O)[C@H](O)[C@H](CC(C)C)NC(=O)OC(C)(C)C)C(C)=C([C@@H](OC(=O)N(C)C)C(=O)[C@]12C)C4(C)C [PCMI-10]
A2780 ovarian cancer
  inhibition at 1 µM: 95%
Hela cervical cancer
  inhibition at 1 µM: 99.9%
[1]
  inhibition at 1 µM: 85.9%
[2]
  inhibition at 1 µM: 81%
A375 melanoma
  inhibition at 1 µM: 94.2%
HT-29 colon cancer
  inhibition at 1 µM: 86.2%
HL-60 leukemia
  inhibition at 1 µM: 97.5%
Du145 prostate cancer
  inhibition at 1 µM: 88%
[3]
  inhibition at 1 µM: 77.3%
LN-18
  inhibition at 1 µM: 93.7%
BGC-823 gastric cancer
  inhibition at 1 µM: 91.2%
[4]
  inhibition at 1 µM: 70.5%
B16 melanoma
  inhibition at 1 µM: 71.4%
HCT 116 colon cancer
  inhibition at 1 µM: 65.6%
K562 leukemia
  inhibition at 1 µM: 90.6%
LNCaP prostate cancer
  inhibition at 1 µM: 85.9%
[5]
  IC50: 6.44 ± 0.18 nM
[6]; [7]
  recovery: 37.3%
[6]; [8]
  Papp A→B: 1.25 ×10⁻⁶ cm/s
[6]; [9]
  recovery: 34%
[6]; [10]
  Papp A→B: 0.89 ×10⁻⁶ cm/s
[6]; [11]
  recovery: 40.5%

## CO[C@H]1C[C@H]2OC[C@@]2(OC(C)=O)[C@H]2[C@H](OC(=O)c3ccccc3)[C@]34OC(=O)O[C@H]3[C@H](OC(=O)[C@H](O)[C@@H](NC(=O)N(C)C)c3ccccc3)C(C)=C([C@@H](OC(=O)N(C)C)C(=O)[C@]12C)C4(C)C [PCMI-11]
A2780 ovarian cancer
  inhibition at 1 µM: 94.6%
Hela cervical cancer
  inhibition at 1 µM: 99.6%
[1]
  inhibition at 1 µM: 82.4%
[2]
  inhibition at 1 µM: 82.2%
A375 melanoma
  inhibition at 1 µM: 92.4%
HT-29 colon cancer
  inhibition at 1 µM: 85.9%
HL-60 leukemia
  inhibition at 1 µM: 97.9%
Du145 prostate cancer
  inhibition at 1 µM: 87.2%
[3]
  inhibition at 1 µM: 79%
LN-18
  inhibition at 1 µM: 92.9%
BGC-823 gastric cancer
  inhibition at 1 µM: 90.6%
[4]
  inhibition at 1 µM: 72.3%
B16 melanoma
  inhibition at 1 µM: 72.6%
HCT 116 colon cancer
  inhibition at 1 µM: 64.3%
K562 leukemia
  inhibition at 1 µM: 92.1%
LNCaP prostate cancer
  inhibition at 1 µM: 86.5%
[5]
  IC50: 4.25 ± 0.06 nM
[6]; Mean, read-out: Papp A-B, Mean
  Papp A→B: 1.13 ×10⁻⁶ cm/s
[6]; [7]
  recovery: 79.9%
[6]; [8]
  Papp A→B: 1.24 ×10⁻⁶ cm/s
[6]; [9]
  recovery: 79.7%
[6]; [10]
  Papp A→B: 1.02 ×10⁻⁶ cm/s
[6]; [11]
  recovery: 80.2%

## COC(=O)O[C@H]1C(=O)[C@]2(C)[C@@H](OC)C[C@H]3OC[C@@]3(OC(C)=O)[C@H]2[C@H](OC(=O)c2ccccc2)[C@]23OC(=O)O[C@H]2[C@H](OC(=O)[C@H](O)[C@@H](NC(=O)OC(C)(C)C)c2ccccc2)C(C)=C1C3(C)C [PCMI-12]
A2780 ovarian cancer
  inhibition at 1 µM: 94.3%
Hela cervical cancer
  inhibition at 1 µM: 100%
[1]
  inhibition at 1 µM: 81.8%
[2]
  inhibition at 1 µM: 82.3%
A375 melanoma
  inhibition at 1 µM: 92%
HT-29 colon cancer
  inhibition at 1 µM: 85.4%
HL-60 leukemia
  inhibition at 1 µM: 97.2%
Du145 prostate cancer
  inhibition at 1 µM: 86.7%
[3]
  inhibition at 1 µM: 81.4%
LN-18
  inhibition at 1 µM: 93.4%
BGC-823 gastric cancer
  inhibition at 1 µM: 93%
[4]
  inhibition at 1 µM: 73.6%
B16 melanoma
  inhibition at 1 µM: 75.9%
HCT 116 colon cancer
  inhibition at 1 µM: 66.6%
K562 leukemia
  inhibition at 1 µM: 91.2%
LNCaP prostate cancer
  inhibition at 1 µM: 86.3%
[5]
  IC50: 3.24 ± 0.04 nM
[6]; Mean, read-out: Papp A-B, Mean
  Papp A→B: < 1.43 ×10⁻⁶ cm/s
[6]; [7]
  recovery: 27.8 to 39.5%
[6]; [8]
  Papp A→B: < 1.36 ×10⁻⁶ cm/s
[6]; [9]
  recovery: 27.8 to 29.1%
[6]; [10]
  Papp A→B: < 1.43 ×10⁻⁶ cm/s
[6]; [11]
  recovery: 38.2 to 39.5%

## CCSC(=O)O[C@H]1C(=O)[C@]2(C)[C@@H](OC)C[C@H]3OC[C@@]3(OC(C)=O)[C@H]2[C@H](OC(=O)c2ccccc2)[C@]23OC(=O)O[C@H]2[C@H](OC(=O)[C@H](O)[C@@H](NC(=O)OC(C)(C)C)c2ccccc2)C(C)=C1C3(C)C [PCMI-13]
A2780 ovarian cancer
  inhibition at 1 µM: 95.9%
Hela cervical cancer
  inhibition at 1 µM: 100%
[1]
  inhibition at 1 µM: 84.7%
[2]
  inhibition at 1 µM: 86.2%
A375 melanoma
  inhibition at 1 µM: 93.1%
HT-29 colon cancer
  inhibition at 1 µM: 87.4%
HL-60 leukemia
  inhibition at 1 µM: 97.5%
Du145 prostate cancer
  inhibition at 1 µM: 90.7%
[3]
  inhibition at 1 µM: 81%
LN-18
  inhibition at 1 µM: 93.8%
BGC-823 gastric cancer
  inhibition at 1 µM: 94%
[4]
  inhibition at 1 µM: 77.1%
B16 melanoma
  inhibition at 1 µM: 81.2%
HCT 116 colon cancer
  inhibition at 1 µM: 68.5%
K562 leukemia
  inhibition at 1 µM: 94.2%
LNCaP prostate cancer
  inhibition at 1 µM: 86.3%
[5]
  IC50: 3.89 ± 0.12 nM
[6]; Mean, read-out: Papp A-B, Mean
  Papp A→B: < 1.67 ×10⁻⁶ cm/s
[6]; [7]
  recovery: 40.8 to 43.1%
[6]; [8]
  Papp A→B: < 1.3 ×10⁻⁶ cm/s
[6]; [9]
  recovery: 40.8 to 42%
[6]; [10]
  Papp A→B: < 1.67 ×10⁻⁶ cm/s
[6]; [11]
  recovery: 41.5 to 43.1%

Source: patent publication US9890175B2, “Taxane compound, and preparation method and use thereof” (JIANGSU TASLY DIYI PHARMACEUTICAL CO., LTD., priority 2013, dated 2018)
